Laboratory results as given in ChEMBL document CHEMBL1201862, “PubChem BioAssay data set” (2004).
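Tested at 5 concentrations; 48 h exposure; 96-well plates; endpoints linearly interpolated, else capped at highest concentration. GI50 = concentration required for 50% inhibition of growth.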 Activity calls are given as the source filed them. No stated cut-off is given here; in the data, active = GI50 up to about 1.1 µM and inactive = higher.

What was measured:
Assay in all cases: inhibition of tumour cell growth, NCI panel, 48 h
HCT-116 = test system: HCT-116
TK-10 = test system: TK-10
SF-295 = test system: SF-295
OVCAR-3 = test system: OVCAR-3
KM12 = test system: KM12
UO-31 = test system: UO-31
786-0 = test system: 786-0
HOP-92 = test system: HOP-92
HL-60 = test system: HL-60
SK-MEL-2 = test system: SK-MEL-2
COLO 205 = test system: COLO 205
OVCAR-8 = test system: OVCAR-8
SK-OV-3 = test system: SK-OV-3
HOP-62 = test system: HOP-62
OVCAR-5 = test system: OVCAR-5
RXF 393 = test system: RXF 393

Measured: GI50

c1ccc(-c2csc3ncn4cnnc4c23)cc1
inactive: HCT-116 91.4 µM | TK-10 84.3 µM | SF-295 > 100 µM | OVCAR-3 > 100 µM | KM12 > 100 µM | UO-31 48.3 µM | 786-0 55.7 µM | HOP-92 24.6 µM | HL-60 86.1 µM | SK-MEL-2 24.8 µM | COLO 205 > 100 µM | OVCAR-8 > 100 µM | SK-OV-3 > 100 µM

CCCCCCCCCC(=O)CC(=O)c1c(O)cccc1O
inactive: HCT-116 33.4 µM | TK-10 41.8 µM | SF-295 34.1 µM | OVCAR-3 29.2 µM | KM12 35.1 µM | UO-31 35.1 µM | 786-0 18.7 µM | HOP-62 85.7 µM | OVCAR-5 22.9 µM | HL-60 21.4 µM | SK-MEL-2 30.6 µM | COLO 205 18.7 µM | OVCAR-8 38 µM | RXF 393 27 µM | SK-OV-3 20.5 µM

COc1nc2c(nc(N)n2C2OC(CO)C(O)C(O)C2O)c(=O)n1C (stereo unspecified)
inactive: HCT-116 > 100 µM | TK-10 > 100 µM | SF-295 > 100 µM | OVCAR-3 > 100 µM | KM12 > 100 µM | UO-31 > 100 µM | 786-0 > 100 µM | HOP-62 > 100 µM | HOP-92 > 100 µM | HL-60 > 100 µM | COLO 205 > 100 µM | OVCAR-8 > 100 µM | RXF 393 > 100 µM | SK-OV-3 > 100 µM

Oc1c(-c2ccccc2)nc2ccccn12
inactive: HCT-116 > 100 µM | TK-10 > 100 µM | SF-295 > 100 µM | OVCAR-3 > 100 µM | KM12 > 100 µM | UO-31 > 100 µM | 786-0 > 100 µM | HOP-62 > 100 µM | OVCAR-5 > 100 µM | HL-60 > 100 µM | SK-MEL-2 > 100 µM | OVCAR-8 > 100 µM | RXF 393 > 100 µM | SK-OV-3 > 100 µM

Cc1cccc(NC(=O)CSc2nnc(-c3ccc(/N=C\c4ccc(Cl)cc4)cc3)o2)c1
inactive: HCT-116 > 100 µM | TK-10 > 100 µM | SF-295 > 100 µM | KM12 > 100 µM | UO-31 > 100 µM | 786-0 > 100 µM | HOP-62 > 100 µM | HL-60 > 100 µM | SK-MEL-2 > 100 µM | COLO 205 > 100 µM | OVCAR-8 > 100 µM | RXF 393 60.4 µM | SK-OV-3 > 100 µM

CNC(=S)/N=C(\N)N(C)C
inactive: HCT-116 > 100 µM | TK-10 > 100 µM | SF-295 > 100 µM | OVCAR-3 > 100 µM | KM12 > 100 µM | UO-31 > 100 µM | 786-0 > 100 µM | HOP-62 > 100 µM | HOP-92 > 100 µM | HL-60 > 100 µM | COLO 205 > 100 µM | OVCAR-8 > 100 µM | RXF 393 > 100 µM | SK-OV-3 > 100 µM

CCCCCCCCCCCCOC(=S)NCCCC
inactive: HCT-116 18.6 µM | TK-10 35.3 µM | SF-295 36.9 µM | KM12 20 µM | UO-31 3.37 µM | 786-0 24.6 µM | HOP-62 35.6 µM | HOP-92 20 µM | OVCAR-5 19.8 µM | HL-60 18.5 µM | SK-MEL-2 18.7 µM | OVCAR-8 18.7 µM | RXF 393 23.8 µM | SK-OV-3 18.7 µM

CC(C)C(=O)N1Cc2cc(Cl)cc(Cl)c2OC(=O)c2ccccc21
inactive: HCT-116 38 µM | TK-10 29.7 µM | SF-295 26.7 µM | OVCAR-3 22 µM | KM12 32.8 µM | UO-31 31.7 µM | 786-0 35 µM | HOP-62 31.2 µM | HOP-92 24.7 µM | OVCAR-5 27 µM | HL-60 22.6 µM | SK-MEL-2 21.5 µM | COLO 205 59.3 µM | OVCAR-8 33.7 µM | SK-OV-3 25.9 µM

Oc1ccc(Br)cc1/C=N/c1ccc(/N=C/c2cc(Br)ccc2O)cc1
inactive: HCT-116 > 100 µM | TK-10 > 100 µM | SF-295 > 100 µM | KM12 > 100 µM | UO-31 > 100 µM | 786-0 > 100 µM | HOP-92 > 100 µM | OVCAR-5 > 100 µM | HL-60 > 100 µM | SK-MEL-2 > 100 µM | OVCAR-8 > 100 µM | RXF 393 > 100 µM | SK-OV-3 > 100 µM

CCOC(=O)[C@@]1(C)C=C2O[C@@H]3OC4(CCCCC4)O[C@@H]3C2=C2C(O)=CC=C(O)[C@]21C(=O)OC
inactive: HCT-116 > 68.1 µM | TK-10 > 68.1 µM | SF-295 > 68.1 µM | OVCAR-3 > 68.1 µM | KM12 > 68.1 µM | UO-31 > 68.1 µM | 786-0 > 68.1 µM | HOP-62 > 68.1 µM | HOP-92 13.4 µM | OVCAR-5 > 68.1 µM | HL-60 33 µM | SK-MEL-2 > 68.1 µM | COLO 205 > 68.1 µM | OVCAR-8 > 68.1 µM | SK-OV-3 > 68.1 µM

COc1ccccc1C1C(Cl)C(=O)N1NC(=O)Cc1ccccc1 (stereo unspecified)
inactive: HCT-116 62.8 µM | TK-10 > 100 µM | SF-295 > 100 µM | OVCAR-3 > 100 µM | KM12 > 100 µM | UO-31 32.1 µM | 786-0 > 100 µM | HOP-62 82.4 µM | OVCAR-5 > 100 µM | HL-60 34.8 µM | SK-MEL-2 53.7 µM | COLO 205 > 100 µM | OVCAR-8 > 100 µM | RXF 393 53.1 µM | SK-OV-3 71.4 µM

CCOC(=O)NC(=O)c1cn(CCCCCCCCCCC(=O)NCCCN2CCN(CCCNC(=O)CCCCCCCCCCn3cc(C(=O)NC(=O)OCC)c(=O)[nH]c3=O)CC2)c(=O)[nH]c1=O
inactive: HCT-116 > 100 µM | TK-10 > 100 µM | SF-295 > 100 µM | OVCAR-3 > 10 µM | KM12 > 100 µM | UO-31 > 100 µM | 786-0 > 100 µM | HOP-62 > 10 µM | HOP-92 > 100 µM | OVCAR-5 > 100 µM | HL-60 > 100 µM | SK-MEL-2 > 100 µM | COLO 205 > 100 µM | OVCAR-8 > 100 µM | SK-OV-3 > 100 µM

C/C(=N\NC(N)=S)c1ccc(/C(C)=N/NC(N)=S)cc1
inactive: HCT-116 > 100 µM | TK-10 > 100 µM | SF-295 > 100 µM | OVCAR-3 > 100 µM | KM12 > 100 µM | UO-31 > 100 µM | 786-0 > 100 µM | HOP-62 > 100 µM | HOP-92 > 100 µM | OVCAR-5 > 100 µM | HL-60 > 100 µM | COLO 205 > 100 µM | OVCAR-8 > 100 µM | RXF 393 > 100 µM | SK-OV-3 > 100 µM

COC(=O)C(CCC1(C)OCCO1)=[N+]=[N-]
inactive: HCT-116 > 100 µM | TK-10 > 100 µM | SF-295 > 100 µM | OVCAR-3 > 100 µM | KM12 > 100 µM | UO-31 > 100 µM | 786-0 > 100 µM | HOP-62 > 100 µM | OVCAR-5 > 100 µM | HL-60 > 100 µM | SK-MEL-2 > 100 µM | COLO 205 > 100 µM | OVCAR-8 > 100 µM | RXF 393 > 100 µM | SK-OV-3 > 100 µM

CCOC(=O)N(c1ccccc1)N(CC)C(=O)/C(C)=N/Nc1ccc([N+](=O)[O-])cc1
inactive: HCT-116 14.1 µM | SF-295 16.6 µM | OVCAR-3 16.2 µM | KM12 15.4 µM | UO-31 14.8 µM | 786-0 17.1 µM | HOP-62 16.1 µM | HOP-92 15.5 µM | HL-60 11 µM | SK-MEL-2 16 µM | COLO 205 17.2 µM | OVCAR-8 17.4 µM | RXF 393 13 µM | SK-OV-3 19.8 µM

c1cc(C2O[C@H]3CCCN3[C@@H]2c2ccncc2)ccn1 (stereo partly specified)
inactive: HCT-116 > 100 µM | TK-10 > 100 µM | SF-295 > 100 µM | OVCAR-3 > 100 µM | KM12 > 100 µM | UO-31 > 100 µM | 786-0 > 100 µM | HOP-62 > 100 µM | OVCAR-5 > 100 µM | SK-MEL-2 > 100 µM | COLO 205 > 100 µM | OVCAR-8 > 100 µM | RXF 393 > 100 µM | SK-OV-3 > 100 µM

COc1ccc(C(O)c2cc(OC)c(OC)c(OC)c2)cc1 (stereo unspecified)
inactive: HCT-116 24.2 µM | TK-10 31.3 µM | SF-295 6.44 µM | OVCAR-3 18.5 µM | KM12 7.52 µM | UO-31 30.6 µM | 786-0 46.8 µM | HOP-62 26.3 µM | HOP-92 27.3 µM | OVCAR-5 > 100 µM | HL-60 6.11 µM | COLO 205 8.73 µM | OVCAR-8 30.3 µM | RXF 393 10.1 µM

C/C=C/C[C@@H](C)[C@@H](O)[C@H]1C(=O)N[C@@H](CC)C(=O)N(C)CC(=O)N(C)[C@@H](CC(C)C)C(=O)N[C@@H](C(C)C)C(=O)N(C)[C@@H](CC(C)C)C(=O)N[C@@H](C)C(=O)N[C@H](C)C(=O)N(C)[C@@H](CC(C)C)C(=O)N(C)[C@@H](CC(C)C)C(=O)N(C)[C@@H](C(C)C)C(=O)N1C [CYCLOSPORINE]
inactive: TK-10 7.82 µM | SF-295 2.79 µM | OVCAR-3 3.8 µM | KM12 5.94 µM | UO-31 3.26 µM | 786-0 12.8 µM | HOP-62 3.91 µM | HOP-92 4.65 µM | OVCAR-5 6.93 µM | HL-60 2.25 µM | SK-MEL-2 3.17 µM | COLO 205 1.77 µM | OVCAR-8 12.2 µM | RXF 393 7.45 µM
